Reference: patent publication US6043058A, “Preparation of cyclic depsipeptide compounds and a novel cyclic depsipeptide” (Maiji Seika Kaisha Ltd., priority 1996, dated 2000)

How the values were obtained:
[1] = Solubilities (physico-chemical properties); type: physicochemical
Excerpt: (§1) Physico-chemical properties of PF […] substance, PF […] substance and PF […] substance thus obtained are given below: […]

fowl roundworms = assay: Anthelmintic activity; type: in vivo; conditions: parasite not named at this place; stated in words only
[2] = Classification by basicity, acidity or neutrality; type: physicochemical
Excerpt: as §1

In the case of `CC(C)C[C@H]1C(=O)O[C@H](C)C(=O)N(C)[C@@H](CC(C)C)C(=O)O[C@H](C)C(=O)N(C)[C@@H](CC(C)C)C(=O)O[C@H](C)C(=O)N(C)[C@@H](CC(C)C)C(=O)O[C@H](C)C(=O)N1C` [PF 1022F substance], the “Solubility in organic solvents” value ([1]; chloroform, acetone, ethyl acetate, methanol and dimethylsulfoxide) is reported as “Soluble”, the Solubility in n-hexane ([1]; solvent: n-hexane) is reported as “Insoluble” and the Solubility in water ([1]; solvent: water) is reported as “Insoluble”. The “Anthelmintic activities (general statement)” value (fowl roundworms) was “having anthelmintic activities” and the “Classification by basicity, acidity or neutrality” value [2] was “Neutral substance”.
